Measurements: publication PMC11012124, “Synthesis of Novel Triazine-Based Chalcones and 8,9-dihydro-7H-pyrimido[4,5-b][1,4]diazepines as Potential Leads in the Search of Anticancer, Antibacterial and Antifungal Agents” (International Journal of Molecular Sciences, 2024)

Assays:
[1] = Hemolytic activity, spectrophotometric; assay type: cell-based, human; conditions: human, human red blood cells (huRBC), 5% hematocrit, 200 μg/mL, 37 °C
M14 = assay: cells; conditions: Homo sapiens, M14, 48 h; for CC50: read-out: LC50
SNB-75 = assay: cells; conditions: Homo sapiens, SNB-75, 48 h; for CC50: read-out: LC50
T-47D = assay: cells; conditions: Homo sapiens, T47D, 48 h; for CC50: read-out: LC50
RXF 393 = assay: cells; conditions: Homo sapiens, RXF 393, 48 h; for CC50: read-out: LC50
MDA-MB-231/ATCC = assay: cells; conditions: Homo sapiens, MDA-MB-231, 48 h
SW-620 = assay: cells; conditions: Homo sapiens, SW-620, 48 h; for CC50: read-out: LC50
MALME-3M = assay: cells; conditions: Homo sapiens, 48 h
KM12 = assay: cells; conditions: Homo sapiens, KM12, 48 h; for CC50: read-out: LC50
HOP-62 = assay: cells; conditions: Homo sapiens, HOP-62, 48 h; for CC50: read-out: LC50
OVCAR-8 = assay: cells; conditions: Homo sapiens, OVCAR-8, 48 h; for CC50: read-out: LC50
MOLT-4 = assay: cells; conditions: Homo sapiens, MOLT-4, 48 h; for CC50: read-out: LC50
SNB-19 = assay: cells; conditions: Homo sapiens, SNB-19, 48 h; for CC50: read-out: LC50
UO-31 = assay: cells; conditions: Homo sapiens, UO-31, 48 h; for CC50: read-out: LC50
UACC-62 = assay: cells; conditions: Homo sapiens, UACC-62, 48 h
COLO 205 = assay: cells; conditions: Homo sapiens, COLO 205, 48 h; for CC50: read-out: LC50
MDA-MB-468 = assay: cells; conditions: Homo sapiens, MDA-MB-468, 48 h; for CC50: read-out: LC50
BT-549 = assay: cells; conditions: Homo sapiens, BT-549, 48 h; for CC50: read-out: LC50
SK-MEL-28 = assay: cells; conditions: Homo sapiens, SK-MEL-28, 48 h; for CC50: read-out: LC50
PC-3 = assay: cells; conditions: Homo sapiens, PC-3, 48 h
NCI-H522 = assay: cells; conditions: Homo sapiens, NCI-H522, 48 h; for CC50: read-out: LC50
U251 = assay: cells; conditions: Homo sapiens, U-251, 48 h; for GI50: U251, 48 h; for CC50: read-out: LC50
EKVX = assay: cells; conditions: Homo sapiens, 48 h; for CC50: read-out: LC50
A549/ATCC = assay: cells; conditions: Homo sapiens, A549, 48 h; for CC50: read-out: LC50
60 cancer cell lines = assay: NCI-60 one-dose screen (10 μM); assay type: cell-based; conditions: Homo sapiens; one dose of 10 μM, mean over 60 cancer cell lines; read-out: Mean Growth Percent (MGP)
Description: Additionally, the mean of the growth percentages (MGP) of each compound against all the 60 cancer cell lines is also reported, which is used as one of the selection criteria to continue with tests at five concentration doses.

HT29 = assay: cells; conditions: Homo sapiens, HT-29, 48 h; for CC50: read-out: LC50
SF-539 = assay: cells; conditions: Homo sapiens, SF-539, 48 h; for CC50: read-out: LC50, SF-539, 48 h
HCC-2998 = assay: cells; conditions: Homo sapiens, HCC 2998, 48 h; for CC50: read-out: LC50
RPMI-8226 = assay: cells; conditions: Homo sapiens, RPMI-8226, 48 h
CAKI-1 = assay: cells; conditions: Homo sapiens, CAKI-1, 48 h; for CC50: read-out: LC50
HCT-15 = assay: cells; conditions: Homo sapiens, HCT-15, 48 h; for CC50: read-out: LC50
HS 578T = assay: cells; conditions: Homo sapiens, 48 h; for CC50: read-out: LC50
SK-OV-3 = assay: cells; conditions: Homo sapiens, SK-OV-3, 48 h; for CC50: read-out: LC50
DU-145 = assay: cells; conditions: Homo sapiens, DU-145, 48 h; for CC50: read-out: LC50
ACHN = assay: cells; conditions: Homo sapiens, 48 h; for CC50: read-out: LC50
NCI-H322M = assay: cells; conditions: Homo sapiens, 48 h; for CC50: read-out: LC50
HCT-116 = assay: cells; conditions: Homo sapiens, HCT-116, 48 h; for CC50: read-out: LC50

## Nc1nc(N)c2c(n1)NC(c1ccc(C(F)(F)F)cc1)CC(c1ccc(Nc3nc(NCCO)nc(Nc4ccc(Cl)cc4)n3)cc1)=N2 (stereo not drawn) [33g]
[1]
  hemolysis at 24 h, 200 µg/mL: 22%
M14
  GI50: 1.64 µM
  CC50: 5.72 µM
SNB-75
  GI50: 1.7 µM
  CC50: 9.06 µM
T-47D
  GI50: 1.55 µM
  CC50: 8.75 µM
RXF 393
  GI50: 1.14 µM
  CC50: 5.48 µM
MDA-MB-231/ATCC
  GI50: 1.88 µM
SW-620
  GI50: 1.6 µM
  CC50: 7.04 µM
MALME-3M
  GI50: 1.74 µM
KM12
  GI50: 1.37 µM
  CC50: 6.05 µM
HOP-62
  GI50: 1.63 µM
  CC50: 6.14 µM
OVCAR-8
  GI50: 1.5 µM
  CC50: 5.75 µM
MOLT-4
  GI50: 0.888 µM
  CC50: > 100 µM
SNB-19
  GI50: 1.51 µM
  CC50: 5.76 µM
UO-31
  GI50: 1.43 µM
  CC50: 5.3 µM
UACC-62
  GI50: 1.68 µM
COLO 205
  GI50: 1.33 µM
  CC50: 5.25 µM
MDA-MB-468
  GI50: 1.58 µM
  CC50: 6.53 µM
BT-549
  GI50: 1.57 µM
  CC50: 6.34 µM
SK-MEL-28
  GI50: 1.53 µM
  CC50: 5.37 µM
PC-3
  GI50: 1.54 µM
NCI-H522
  GI50: 1.34 µM
  CC50: 5.54 µM
U251
  GI50: 1.24 µM
  CC50: 5.16 µM
EKVX
  GI50: 1.52 µM
  CC50: 5.75 µM
A549/ATCC
  GI50: 1.73 µM
  CC50: 7.08 µM
60 cancer cell lines
  activity at 10 µM: -44.8%
HT29
  GI50: 1.36 µM
  CC50: 6.54 µM
SF-539
  GI50: 1.56 µM
  CC50: 5.68 µM
HCC-2998
  GI50: 1.31 µM
  CC50: 5.25 µM
RPMI-8226
  GI50: 1.51 µM
RPMI-8226; read-out: LC50
  CC50: > 100 µM
CAKI-1
  GI50: 1.45 µM
  CC50: 5.61 µM
HCT-15
  GI50: 1.15 µM
  CC50: 5.83 µM
HS 578T
  GI50: 2.55 µM
  CC50: > 100 µM
SK-OV-3
  GI50: 1.83 µM
  CC50: 6.52 µM
DU-145
  GI50: 1.51 µM
  CC50: 5.33 µM
ACHN
  GI50: 1.5 µM
  CC50: 5.31 µM
NCI-H322M
  GI50: 1.66 µM
  CC50: 5.63 µM
HCT-116
  GI50: 1.05 µM
  CC50: 5.54 µM

## Nc1nc(N)c2c(n1)NC(c1ccc(Cl)cc1)CC(c1ccc(Nc3nc(NCCO)nc(Nc4ccc(Cl)cc4)n3)cc1)=N2 (stereo not drawn) [33e]
[1]
  hemolysis at 24 h, 200 µg/mL: 1.2%
M14
  GI50: 1.9 µM
  CC50: 10.5 µM
SNB-75
  GI50: 1.59 µM
  CC50: 9.94 µM
T-47D
  GI50: 1.71 µM
  CC50: 54.6 µM
RXF 393
  GI50: 1.54 µM
  CC50: 5.73 µM
MDA-MB-231/ATCC
  GI50: 1.75 µM
MDA-MB-231/ATCC; read-out: LC50
  CC50: 8.82 µM
SW-620
  GI50: 1.62 µM
  CC50: 6.72 µM
MALME-3M
  GI50: 1.75 µM
KM12
  GI50: 3.18 µM
  CC50: > 100 µM
HOP-62
  GI50: 2.83 µM
  CC50: 34.5 µM
OVCAR-8
  GI50: 1.57 µM
  CC50: 6.81 µM
MOLT-4
  GI50: 0.79 µM
  CC50: > 100 µM
SNB-19
  GI50: 1.99 µM
  CC50: 21.4 µM
UO-31
  GI50: 3.1 µM
  CC50: > 100 µM
UACC-62
  GI50: 2.03 µM
UACC-62; read-out: LC50
  CC50: 9.06 µM
COLO 205
  GI50: 1.51 µM
  CC50: 8.55 µM
MDA-MB-468
  GI50: 1.39 µM
  CC50: 5.6 µM
BT-549
  GI50: 2.25 µM
  CC50: 23.5 µM
SK-MEL-28
  GI50: 1.73 µM
  CC50: 5.61 µM
PC-3
  GI50: 1.93 µM
PC-3; read-out: LC50
  CC50: > 100 µM
NCI-H522
  GI50: 1.56 µM
  CC50: 6.41 µM
U251
  GI50: 1.47 µM
  CC50: 5.81 µM
EKVX
  GI50: 2.01 µM
  CC50: 28.7 µM
A549/ATCC
  GI50: 4.12 µM
  CC50: > 100 µM
60 cancer cell lines
  activity at 10 µM: 30.5%
HT29
  GI50: 1.7 µM
  CC50: 7.96 µM
SF-539
  GI50: 1.68 µM
  CC50: 6.56 µM
HCC-2998
  GI50: 1.44 µM
  CC50: 5.36 µM
RPMI-8226
  GI50: 1.44 µM
CAKI-1
  GI50: 5.36 µM
  CC50: > 100 µM
HCT-15
  GI50: 1.29 µM
  CC50: 6.09 µM
HS 578T
  GI50: 2.22 µM
  CC50: > 100 µM
SK-OV-3
  GI50: 14.8 µM
  CC50: 58.3 µM
DU-145
  GI50: 2.22 µM
  CC50: 22.8 µM
ACHN
  GI50: 4.69 µM
  CC50: > 100 µM
NCI-H322M
  GI50: 2.02 µM
  CC50: 16.9 µM
HCT-116
  GI50: 1.4 µM
  CC50: 5.19 µM
